Source: ChEMBL document CHEMBL1201862, “PubChem BioAssay data set” (2004)
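All cell lines were grown in 96-well plates and treated with compound for 48 hours. GI50 is the concentration that inhibits growth by half.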 The source made the active and inactive calls. Cut-off read from the data, not from the text of the source: active = GI50 up to about 1.1 µM and inactive = higher.

Experiments:
Experiment in all cases: NCI-60 cell line screen, 48 h
K562 = tested on: K562
U-251 = tested on: U-251
OVCAR-8 = tested on: OVCAR-8
TK-10 = tested on: TK-10
SF-539 = tested on: SF-539
CAKI-1 = tested on: CAKI-1
HL-60 = tested on: HL-60
SF-295 = tested on: SF-295
OVCAR-5 = tested on: OVCAR-5
HCT-116 = tested on: HCT-116
KM12 = tested on: KM12
HCT-15 = tested on: HCT-15
MOLT-4 = tested on: MOLT-4
HOP-92 = tested on: HOP-92
HT-29 = tested on: HT-29
A498 = tested on: A498
OVCAR-4 = tested on: OVCAR-4

Measured: GI50

c1ccc(COc2ccc3[nH]c4c5c6ccccc6nc-5c[nH]c4c3c2)cc1
4.3 µM: HCT-15
inactive: K562 2.48 µM | U-251 11.7 µM | OVCAR-8 17.5 µM | TK-10 21.9 µM | SF-539 15.7 µM | CAKI-1 22 µM | HL-60 2.19 µM | SF-295 14.8 µM | OVCAR-5 19.4 µM | HCT-116 12.2 µM | KM12 14.7 µM | MOLT-4 7.62 µM | HOP-92 15.8 µM | HT-29 5.47 µM | A498 21.6 µM

CC(=O)n1c(=O)c2cc3c(=O)n(-c4cccc(C#N)c4)c(=O)c3cc2c1=O
inactive: K562 > 100 µM | OVCAR-4 > 100 µM | U-251 24.2 µM | OVCAR-8 > 100 µM | TK-10 > 100 µM | SF-539 > 100 µM | CAKI-1 > 100 µM | HL-60 > 100 µM | SF-295 60.7 µM | OVCAR-5 > 100 µM | HCT-116 > 100 µM | KM12 > 100 µM | HOP-92 39.2 µM | HT-29 > 100 µM | A498 > 100 µM
> 100 µM: HCT-15

Cc1cc(C)n2c(-c3ccccc3)c(C)cc2n1
16.7 µM: HCT-15
inactive: K562 8.17 µM | OVCAR-4 73.3 µM | U-251 34 µM | OVCAR-8 49.1 µM | TK-10 > 100 µM | SF-539 24.3 µM | CAKI-1 30.9 µM | HL-60 5.68 µM | SF-295 48 µM | OVCAR-5 > 100 µM | HCT-116 67.8 µM | KM12 60.8 µM | HOP-92 53.2 µM | HT-29 25.8 µM | A498 35.2 µM

COc1ccc(NC(=O)CCc2cc(-c3ccc(O)c(OC)c3)nc(NC#N)n2)cc1
> 100 µM: HCT-15
inactive: K562 > 100 µM | OVCAR-4 > 100 µM | U-251 > 100 µM | OVCAR-8 > 100 µM | SF-539 > 100 µM | CAKI-1 > 100 µM | HL-60 > 100 µM | SF-295 > 100 µM | OVCAR-5 > 100 µM | HCT-116 > 100 µM | KM12 > 100 µM | MOLT-4 > 100 µM | HOP-92 > 100 µM | HT-29 > 100 µM

CO/N=C(/C(=O)Nc1c[n+](CC(=O)[O-])cs1)c1csc(N)n1
> 100 µM: HCT-15
inactive: K562 > 100 µM | U-251 > 100 µM | OVCAR-8 > 100 µM | TK-10 > 100 µM | SF-539 > 100 µM | CAKI-1 > 100 µM | HL-60 > 100 µM | SF-295 > 100 µM | OVCAR-5 > 100 µM | HCT-116 > 100 µM | KM12 > 100 µM | MOLT-4 > 100 µM | HOP-92 > 100 µM | HT-29 > 100 µM | A498 > 100 µM

O=[N+]([O-])C1C2C=CC(C2)[C@H]1c1ccco1 (some centres undefined)
active: HOP-92 0.259 µM
> 100 µM: HCT-15
inactive: K562 > 100 µM | OVCAR-4 > 100 µM | U-251 > 100 µM | OVCAR-8 > 100 µM | TK-10 > 100 µM | SF-539 > 100 µM | CAKI-1 > 100 µM | HL-60 > 100 µM | SF-295 > 100 µM | OVCAR-5 > 100 µM | HCT-116 > 100 µM | KM12 > 100 µM | MOLT-4 > 100 µM | HT-29 2.19 µM | A498 > 100 µM

N#CC(C#N)=C(N)/C(C#N)=C\c1ccnc2ccccc12
active: HCT-116 0.962 µM
inactive: K562 4.24 µM | OVCAR-4 72.6 µM | U-251 20 µM | OVCAR-8 17.3 µM | TK-10 35.2 µM | SF-539 15.1 µM | CAKI-1 23.6 µM | HL-60 2.01 µM | SF-295 28.2 µM | OVCAR-5 > 100 µM | KM12 25.7 µM | MOLT-4 15.8 µM | HOP-92 23 µM | HT-29 24.8 µM

CCC(=O)C(C(=O)CC)c1c(OC(=O)c2ccccc2)ccc(O)c1C(=O)OC
> 100 µM: HCT-15
inactive: K562 > 100 µM | OVCAR-4 > 100 µM | U-251 > 100 µM | OVCAR-8 > 100 µM | TK-10 > 100 µM | SF-539 > 100 µM | CAKI-1 > 100 µM | HL-60 > 100 µM | SF-295 > 100 µM | OVCAR-5 > 100 µM | HCT-116 > 100 µM | KM12 > 100 µM | MOLT-4 72.3 µM | HOP-92 > 100 µM | HT-29 > 100 µM | A498 > 100 µM

CC1OC(OCC2COC(O)(Oc3c(-c4ccc(O)c(O)c4)oc4cc(O)cc(O)c4c3=O)C(O)C2O)C(O)C(O)C1O (centres undefined)
inactive: K562 > 100 µM | OVCAR-4 > 100 µM | U-251 > 100 µM | OVCAR-8 > 100 µM | TK-10 > 100 µM | SF-539 > 100 µM | CAKI-1 > 100 µM | HL-60 > 100 µM | SF-295 > 100 µM | OVCAR-5 > 100 µM | HCT-116 > 100 µM | KM12 > 100 µM | MOLT-4 > 100 µM | HOP-92 > 100 µM | HT-29 > 100 µM | A498 > 100 µM
> 100 µM: HCT-15

CSc1nc2nccnc2c(=O)[nH]1
inactive: K562 > 100 µM | OVCAR-4 > 100 µM | U-251 > 100 µM | OVCAR-8 > 100 µM | TK-10 > 100 µM | CAKI-1 > 100 µM | HL-60 > 100 µM | SF-295 > 100 µM | OVCAR-5 > 100 µM | HCT-116 > 100 µM | MOLT-4 > 100 µM | HOP-92 96.2 µM | HT-29 > 100 µM | A498 > 100 µM
> 100 µM: HCT-15

COc1ccc(-c2cc(=O)c3c(O)cccc3o2)c(OC)c1OC
inactive: K562 6.59 µM | OVCAR-4 74.5 µM | U-251 16.1 µM | OVCAR-8 > 100 µM | TK-10 47.1 µM | SF-539 20.6 µM | CAKI-1 97.3 µM | HL-60 10.1 µM | SF-295 43.2 µM | OVCAR-5 6.67 µM | HCT-116 38.7 µM | KM12 40.6 µM | MOLT-4 12.9 µM | HOP-92 19.9 µM | HT-29 > 100 µM | A498 33 µM
10.1 µM: HCT-15

O=C(O)CCSC(=O)Nc1ccc([N+](=O)[O-])cc1
inactive: K562 > 100 µM | OVCAR-4 > 100 µM | U-251 > 100 µM | OVCAR-8 > 100 µM | TK-10 > 100 µM | SF-539 > 100 µM | CAKI-1 > 100 µM | HL-60 > 100 µM | SF-295 > 100 µM | HCT-116 > 100 µM | KM12 > 100 µM | MOLT-4 > 100 µM | HT-29 > 100 µM | A498 > 100 µM
> 100 µM: HCT-15

COc1cc([N+](=O)[O-])ccc1NC(=O)c1cccc([N+](=O)[O-])c1O
inactive: K562 20.8 µM | OVCAR-4 23.4 µM | U-251 40.1 µM | OVCAR-8 29 µM | SF-539 23.1 µM | CAKI-1 17 µM | HL-60 19.9 µM | SF-295 23.4 µM | OVCAR-5 41.3 µM | HCT-116 26.4 µM | KM12 29.5 µM | MOLT-4 30.9 µM | HT-29 25.5 µM | A498 17.9 µM
18.1 µM: HCT-15

CCOP(=O)(OCC)C1CCCOC1=O (centres undefined)
inactive: K562 > 100 µM | OVCAR-4 > 100 µM | U-251 > 100 µM | OVCAR-8 > 100 µM | TK-10 > 100 µM | SF-539 > 100 µM | CAKI-1 > 100 µM | HL-60 > 100 µM | SF-295 > 100 µM | OVCAR-5 > 100 µM | HCT-116 > 100 µM | KM12 > 100 µM | MOLT-4 > 100 µM | HT-29 > 100 µM | A498 > 100 µM
> 100 µM: HCT-15

OCCNCO
> 100 µM: HCT-15
inactive: K562 > 100 µM | OVCAR-4 > 100 µM | U-251 > 100 µM | OVCAR-8 > 100 µM | TK-10 > 100 µM | SF-539 > 100 µM | CAKI-1 > 100 µM | HL-60 46.8 µM | SF-295 > 100 µM | OVCAR-5 > 100 µM | HCT-116 > 100 µM | KM12 > 100 µM | MOLT-4 > 100 µM | HOP-92 > 100 µM | HT-29 > 100 µM | A498 > 100 µM

Cc1nn(-c2ccccc2)c(-c2ccccc2[N+](=O)[O-])c1CC#N
> 100 µM: HCT-15
inactive: K562 59.2 µM | OVCAR-4 > 100 µM | OVCAR-8 > 100 µM | TK-10 > 100 µM | SF-539 > 100 µM | CAKI-1 > 100 µM | HL-60 69.5 µM | SF-295 > 100 µM | OVCAR-5 > 100 µM | KM12 > 100 µM | MOLT-4 67.3 µM | HOP-92 27.8 µM

CCc1ccccc1NC(=O)C1=C(C)NC(C)=C(C(=O)Nc2ccccc2CC)C1c1cccc([N+](=O)[O-])c1
inactive: K562 29.4 µM | OVCAR-4 7.85 µM | U-251 39.4 µM | OVCAR-8 44.7 µM | TK-10 41.6 µM | SF-539 43.9 µM | CAKI-1 43.8 µM | HL-60 23.2 µM | SF-295 47.4 µM | OVCAR-5 41.5 µM | KM12 32.8 µM | MOLT-4 7.45 µM | HOP-92 13.2 µM | HT-29 37.1 µM | A498 24.2 µM

CCCCc1c2c(nc3c1CCC/C3=C\c1ccccc1)C(=O)CCC2
inactive: K562 18.2 µM | OVCAR-4 28.4 µM | U-251 15.2 µM | OVCAR-8 24.5 µM | TK-10 24.5 µM | SF-539 18.4 µM | HL-60 22.2 µM | SF-295 21.2 µM | OVCAR-5 19.5 µM | HCT-116 20 µM | KM12 18.7 µM | MOLT-4 13.8 µM | HOP-92 22 µM | HT-29 15.5 µM | A498 19.4 µM
21.8 µM: HCT-15
